Source: patent US20240315990A1, “Adelmidrol For Use In Diseases Characterized By Insufficient Agonism Of PPAR-GAMMA Receptor” (Epitech Group S.P.A., priority 2016, published 2024)

What was measured:
[1] = test system: MIA-induced articular cartilage erosion; assay: monosodium iodoacetate (MIA)-induced articular lesion, cartilage erosion by stereomicroscope; assay type: in vivo; conditions: Adelmidrol 150 μg/25 μL i.a.
Description: FIG. 1A. Images obtained by a stereomicroscope on the state of erosion of the interposed cartilage in the right knee of each experimental group: control, MIA, Adelmidrol 150 μg/25 μL i.a. The analysis was performed 21 days after the induction of the disease.
FIG. 1B. Effect of the treatment with Adelmidrol 150 μg/25 μL i.a. on the erosive lesion of the interposed cartilage upon injection of MIA, compared to MIA and control groups treated with the solvent;
A microscopic analysis of the lesion related to the articular cartilage was performed by comparing the erosive lesion of the articular cartilage between the following groups: animals not treated with MIA, animals treated with MIA+solvent, and animals treated with MIA+solvent added with Adelmidrol. […] In the image corresponding to the animal damaged through MIA, an extensive cartilage erosion is apparent, which also allows to distinguish the subchondral bone, unlike the animal control whose joint is in excellent condition. […] Each image was given a score from 0 to 4 (0=normal; 4=maximum degree of injury severity) expressing the articular cartilage lesion in terms of increasing severity (Janusz M J et al. Ostearthritis and Cartilage 2001; 9:751-760), as described by Guingamp et al. (Guingamp C. et al. Arthritis & Rheumatism 1997; Vol 40 No 9:1670-1679).

[2] = target: T1, PPAR-gamma receptor (Rattus norvegicus, UniProt O88275); assay: carrageenan-induced rat paw edema with PPAR-gamma antagonist GW9662, residence time of the paw on the hot plate; assay type: in vivo
T1 construct: from tissue; host or cells: live rat (in vivo, paw edema model)
T1 sequence (O88275 1-505): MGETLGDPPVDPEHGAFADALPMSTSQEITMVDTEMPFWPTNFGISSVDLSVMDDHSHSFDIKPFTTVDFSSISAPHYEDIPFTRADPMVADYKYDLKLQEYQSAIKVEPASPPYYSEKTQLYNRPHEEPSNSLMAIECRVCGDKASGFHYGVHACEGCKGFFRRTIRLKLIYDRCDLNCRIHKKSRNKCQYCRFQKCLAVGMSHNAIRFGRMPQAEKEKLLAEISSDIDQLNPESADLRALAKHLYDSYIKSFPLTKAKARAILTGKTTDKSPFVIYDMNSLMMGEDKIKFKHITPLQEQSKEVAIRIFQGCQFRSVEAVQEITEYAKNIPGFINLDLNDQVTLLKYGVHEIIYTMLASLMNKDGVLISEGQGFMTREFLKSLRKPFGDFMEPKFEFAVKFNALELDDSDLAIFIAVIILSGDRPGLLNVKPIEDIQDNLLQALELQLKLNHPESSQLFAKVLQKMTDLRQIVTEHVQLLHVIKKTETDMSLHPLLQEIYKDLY
Description: The experimental model of carrageenan-induced rat paw edema is as shown above. In this experiment, the effect was assessed by measuring the residence time of the animal's paw on the hot plate, thus obtaining percentage data with respect to the control treated with carrageenan alone.
The rats (10 animals per group) were divided into the following experimental groups: • CAR+physiological solution; • CAR+GW9662 (1 mg/kg)+Adelmidrol (10 mg/kg); GW9662 was administered i.p. 30 min before injecting CAR and Adelmidrol (i.p.) when injecting CAR; • CAR+Adelmidrol (10 mg/kg); Adelmidrol was administered i.p. when injecting CAR.

[3] = test system: inflammatory cells in BAL fluid; assay: bleomycin-induced lung lesion, inflammatory cells in bronchoalveolar lavage (BAL) fluid; assay type: in vivo, CD1 male mice; conditions: BLM-treated mice, BAL seven days after induction
Description: CD1 male mice ((CD1(ICR) mice (25-35 g; Harlan Nossan, Italy) were accommodated in a controlled environment and fed with standard food and water.
Using a catheter (tracheotomy tube), the mice received a single intratracheal instillation of physiological solution (0.9%) or saline containing bleomycin sulfate (0.1 U/mouse) in a final volume of 100 μL, and the liquid was immediately followed by 300 μL of air in order to also ensure the distribution thereof in the distal airways.
Seven days after the induction of fibrosis, the mice were sacrificed and their trachea was immediately cannulated with an intravenous catheter made of polyethylene (Neo Delta Ven. 2, Delta Med, Viadana, Italy) equipped with a 1 mL 24-gauge syringe. The lungs were washed once with 0.5 mL of D-PBS (GIBCO, UK). In 95% of mice, the recovery volume exceeds 0.4 mL. The BAL fluid was centrifuged at 800 rpm, the surfactant was removed and the cell pellet was resuspended in PBS. The number of cells in the BAL fluid was obtained by counting on a hemocytometer in the presence of Trypan Blue. Cytospins were prepared from the cells resuspended in PBS. The slides were dried in dry air and then colored with Diff-Quick Set Stain (Diff-Quick, Baxter Scientific, Miami, FL). Using the optical microscopy, a total of 400 cells was examined from each sample in randomly chosen fields. […]

residence time of the paw on the hot plate, percentage with respect to the control treated with carrageenan alone ([2]; Adelmidrol 10 mg/kg ip alone, 0 min.): 107.4 percentage
residence time of the paw on the hot plate, percentage with respect to the control treated with carrageenan alone ([2]; Adelmidrol 10 mg/kg ip alone, 30 min): 98.5 percentage
residence time of the paw on the hot plate, percentage with respect to the control treated with carrageenan alone ([2]; Adelmidrol 10 mg/kg ip alone, 1 hr): 123.2 percentage
residence time of the paw on the hot plate, percentage with respect to the control treated with carrageenan alone ([2]; Adelmidrol 10 mg/kg ip alone, 2 hr): 134.2 percentage
residence time of the paw on the hot plate, percentage with respect to the control treated with carrageenan alone ([2]; Adelmidrol 10 mg/kg ip alone, 3 hr): 146.8 percentage
residence time of the paw on the hot plate, percentage with respect to the control treated with carrageenan alone ([2]; Adelmidrol 10 mg/kg ip alone, 4 hr): 197.7 percentage
residence time of the paw on the hot plate, percentage with respect to the control treated with carrageenan alone ([2]; Adelmidrol 10 mg/kg ip alone, 5 hr): 175.0 percentage
residence time of the paw on the hot plate, percentage with respect to the control treated with carrageenan alone ([2]; GW9662 1 mg/kg i.p. 30 min before CAR + Adelmidrol 10 mg/kg i.p., 0 min.): 105.2 percentage
residence time of the paw on the hot plate, percentage with respect to the control treated with carrageenan alone ([2]; GW9662 1 mg/kg i.p. 30 min before CAR + Adelmidrol 10 mg/kg i.p., 30 min): 96.2 percentage
residence time of the paw on the hot plate, percentage with respect to the control treated with carrageenan alone ([2]; GW9662 1 mg/kg i.p. 30 min before CAR + Adelmidrol 10 mg/kg i.p., 1 hr): 102.4 percentage
residence time of the paw on the hot plate, percentage with respect to the control treated with carrageenan alone ([2]; GW9662 1 mg/kg i.p. 30 min before CAR + Adelmidrol 10 mg/kg i.p., 2 hr): 104.1 percentage
residence time of the paw on the hot plate, percentage with respect to the control treated with carrageenan alone ([2]; GW9662 1 mg/kg i.p. 30 min before CAR + Adelmidrol 10 mg/kg i.p., 3 hr): 111.3 percentage
residence time of the paw on the hot plate, percentage with respect to the control treated with carrageenan alone ([2]; GW9662 1 mg/kg i.p. 30 min before CAR + Adelmidrol 10 mg/kg i.p., 4 hr): 114.1 percentage
residence time of the paw on the hot plate, percentage with respect to the control treated with carrageenan alone ([2]; GW9662 1 mg/kg i.p. 30 min before CAR + Adelmidrol 10 mg/kg i.p., 5 hr): 112.5 percentage
Compound: O=C(CCCCCCCC(=O)NCCO)NCCO [Adelmidrol, azelaic acid diethanolamide]
cartilage erosion of the tibial plateau, stereomicroscope image (FIG. 1A) ([1]; 21 days after induction with MIA): clear protection against cartilage erosion
cartilage erosion, quantitative analysis of score 0 to 4 (FIG. 1B) ([1]; compared to MIA + solvent): noticeably slow down the cartilage erosion in a statistically significant manner
number of macrophages, neutrophils and lymphocytes in BAL fluid (FIGS. 7 and 8) [3]: reduces the number of macrophages, neutrophils and lymphocytes in a very significant manner
